Measurements reported in patent publication US7279548B2, “Identification and isolation of novel polypeptides having WW domains and methods of using same” (Cytogen Corporation, priority 1996, dated 2007).
“Also recorded” adds a separate entry of the source. No end group written: not given here. *: point of attachment. Biotin = O=C1N[C@H]2[C@H](CS[C@H]2CCCCC(=O)*)N1

Target: T1, WWP3 WW domain expressed as GST fusion protein (Homo sapiens, UniProt Q96QZ7)
T1 construct: made in house
Experiment: ELISA based cross affinity mapping, WWP3 WW domain
Type: binding
Details: biotinylated peptide-streptavidin/alkaline phosphatase complex
Procedure: The 16 day mouse embryo cDNA expression library was diluted 1:1000 in SM solution (100 mM NaCl, 8 mM MgSOv4, 50 mM Tris HCl pH 7.5, 0.01% gelatin). To a sterile test tube, 2 μl of diluted mouse embryo library, 100 μl of 10 mM CaCl2, 100 μl of 10 mM MgCl2 and 100 μl of BL21(DE3)pLysE bacterial cells (grown overnight) were added and incubated for 30 minutes at 37° C. The contents of the tube were mixed with 3 ml of 0.6% top agarose, containing […] chloramphenicol, and poured onto a 2xYT plate (90 mm diameter). For a large primary screen, 10–20 plates were prepared with 3×10^4 pfu per plate. After 6 hours incubation at 37° C., a nitrocellulose filter soaked in 10 mM isopropyl-β-D-thiogalactopyranoside (IPTG) was overlaid on each plate and incubated 3–6 hours at 37° C. Before the filters were removed from the plates, they were marked asymmetrically with India ink in a 18 gauge syringe needle. The plates were stored at 4° C. until ready for the secondary screen. The filters were washed with PBS (137 mM NaCl, 2.7 mM KCl, 4.3 mM Na2HPO4, 1.4 mM KH2PO4)-0.05% Triton X-100 three times at room temperature, 15 minutes each wash, and then placed in a plastic bag containing non-specific blocking solution (PBS-2% BSA) for one hour. In the meantime, 1 ml of 1 mM biotinylated peptide in PBS-0.1% Tween 20 was added to 20 ml of 1 mg/ml streptavidin-alkaline phosphatase (SA-AP) in PBS-0.1% Tween 20 and incubated at 4° C. for 30 minutes. As an alternative method of forming multivalent complexes, 50 pmol biotinylated peptide could have been incubated with 2 μg SA-AP (for a biotin:biotin-binding site ratio of 1:1). Excess biotin-binding sites would then be blocked by addition of 500 pmol biotin. As a further alternative, 31.2 μl of 1 mg/ml SA-AP could have been incubated with 15 μl of 0.1 mM biotinylated peptide for 30 min at 4° C. Ten μl of 0.1 mM biotin would then be added, and the solution incubated for an additional 15 min.
To determine the ligand preferences of the novel WW omain-containing clones described in Sections 6.1 and 6.1.1, as well as addressing the issue of whether peptides containing PPPPY (SEQ ID NO:3)-like motifs derived from a variety of proteins could also serve as recognition units and bind to these clones, a cross affinity mapping experiment was performed (FIGS. 15A–D). The peptides shown in FIGS. 15A–D were synthesized, biotinylated, complexed with streptavidin-alkaline phosphatase, and tested in an ELISA based assay for their ability to bind to the twelve individual novel WW domains of WWP1, WWP2, WWP3 and WWP4 which were expressed as GST fusion proteins. The ELISA based cross-affinity experiments were performed essentially as described by Sparks et al. (1996, Proc. Natl. Acad. Sci. 93:1540–1544) with the following modifications. Briefly, microtiter wells were coated with 1–5 μg of fusion protein in 100 mM NaHCO3, blocked with SuperBlock TBS (Pierce) and washed four times with PBS, 0.05% Tween 20. Specific peptide-streptavidin/alkaline phosphatase complexes were added as above and unbound complexes washed five times with PBS, 0.05% Tween 20. Following addition of PNP substrate (p-nitrophenyl phosphate, Kirkegard & Perry Labs), peptide binding was quantitated after 30 min. at O.D. 405 nm. Relative binding measurements from three independent determinations were assigned to a scale as follows: O.D. units 0–0.5=(−), 0.5–1.0=(+), 1.0–2.0=(++), 2.0–3.0=(+++), >3.0=(++++). Peptide binding to human Fyn and Lyn SH3 and SH2 domains was assessed by a filter binding assay (see Section 6.1 and Sparks et al., 1996, Proc. Natl. Acad. Sci 93:1540–1544). […]

T1 sequence (Q96QZ7 300-337 limits assumed): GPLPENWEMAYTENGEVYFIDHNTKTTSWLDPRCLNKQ

Substance | binding to WWP3 WW domain
Biotin-SGSGYVQPPPPPYPGPM [WBP-2A] | specifically binds; also recorded: bound
Biotin-SGSGPGTPPPPYTVGPGY [WBP-1] | not
Biotin-SGSGPGTPYPPPPEFY [WBP-2B] | not
